Here are results for two molecules from US9521848B2, “Tetrazolinone compound and use therefor” (Sumitomo Chemical Company, Limited, priority 2013, dated 2016).

Experiment [1] has as its system cotton aphid (Aphis gossypii). Put plainly: Cotton aphid control test on cucumber, spray (Test Example 19). It counts as in vivo. Conditions: 500 ppm, 20 mL sprayed on cucumber with 30 aphids; surviving insects counted after 6 days. As to the method:
A water dilution (test chemical solution) containing a surfactant prepared by adjusting so as to contain a predetermined concentration (500 ppm) of the present compound 21 was used as a test chemical solution. Thirty (30) heads of cotton aphid (Aphis gossypii) (including adults and larvae) were released on the leaves of cucumber (cultivar; […]) grown in a polyethylene cup until the first true leaf was developed. Next day, 20 mL of the above test chemical solution was sprayed. After 6 days, the number of the surviving insects was counted and the control value was calculated by the following equation. Control value (%)={1-(Cb×Tai)/(Cai×Tb)}×100 wherein symbols in the equation represent the followings: Cb: Number of insects before spraying chemical solution in untreated area; Cai: Number of surviving insects in untreated area; Tb: Number of insects before spraying chemical solution in treated area; and Tai: Number of surviving insects in treated area.

The test system of experiment [2] is wheat rust fungus (Puccinia recondita). Put plainly: Wheat rust control test, foliar spray before inoculation (Test Examples 3, 4, Comparative Test Example). In kind it is in vivo. The note with it: 200 ppm foliar spray, wheat (SHIROGANE), inoculated 5 days after spraying. As to the method: The control effect was evaluated by visually observing the area of lesion spots on each of test plants at the time of investigation, and comparing the area of lesion spots on a plant treated with the present compound with that on an untreated plant.
Each of plastic pots was filled with sandy loam and wheat (cultivar: SHIROGANE) was sowed and grown in a greenhouse for 9 days. Then, each water dilution containing a surfactant prepared by adjusting so as to contain a predetermined concentration (500 ppm) of any one compound of the present compounds 1, 18, 19, 20, 21, 27, 30, and 38 was sprayed over stems and leaves of the wheat so that it sufficiently adhered to the surface of the leaves of the wheat. After spraying, the plant was air-dried so as to dry the dilution on the surface of the leaves. After spraying, the plant was air-dried and cultivated at 20° C. for 5 days under illumination, and then inoculated by sprinkling with spores of wheat rust fungus (Puccinia recondita). After the inoculation, the plant was left to stand at 23° C. for one day under dark and high humidity condition, and cultivated under illumination at 20° C. for 8 days, and then the area of lesion spots was investigated.
Each of plastic pots was filled with sandy loam and wheat (cultivar: SHIROGANE) was sowed and grown in a greenhouse for 9 days. […]

`Cc1ccc(-c2cnc(OCc3c(C)cccc3-n3nnn(C)c3=O)c(C)c2)cc1` [Present Compound 21]: the control value in experiment [1] is on record as no less than 90%.

Consider `Cc1cccc(-n2nnn(C)c2=O)c1COc1cncc(Oc2ccccc2)c1` [1-[2-{5-phenoxypyridin-3-yloxymethyl}-3-methylphenyl]-4-methyl-1,4-dihydrotetrazol-5-one], for which, in experiment [2], the “area of lesion spots on the treated plant relative to that on an untreated plant” value is reported as no less than 70%.
